The values below are quoted from earlier work in US11480580B2, “Methods and reagents to label bacteria and virus and identify their interacting proteins” (priority 2019, dated 2022).

The series concerns ZIKV. The conditions noted are these: prior studies.

Take `CN(C)CCCN1c2ccccc2Sc2ccc(Cl)cc21` [chlorpromazine]: the ZIKV infection result is “blocked”.
